Results on one molecule are retold here after US20160279190A1, “MODULATION OF AXON DEGENERATION” (GENENTECH, INC., priority 2008, published 2016).

pIC50: −log10 of the molar value.

One assay relates to CaMKK. Conditions: CaMKK activity after ionomycin stimulation, transfected HeLa cells; published source (footnote e, cell marked c); read-out: Cellular IC50; cited from earlier work.
Assay [1] has as its system cerebellar granule neurons (CGNs). Kind of assay: serum deprivation/KCl reduction-induced degeneration. It is filed as cell-based, mouse. Conditions: inhibitor 5 μM; 5 mM KCl, 24 hours. The protocol:
Kinase inhibitors (inhibitors of GSK3, JNK, EGFR, p38, and CaMKK) were tested for their capacity to protect cultured cerebellar granule neurons (CGNs) following serum deprivation/KCl reduction. Briefly, CGNs isolated from P7 mouse brain were cultured on PDL- and laminin-coated 96-well tissue culture dishes in medium containing serum and potassium (Basal Medium Eagles including 29 mM KCl and 10% FBS) at 37° C. After 24 hours in culture, cells were switched to “deprivation” medium (Basal Medium Eagles including 5 mM KCl), alone or in combination with various small molecule inhibitors as shown in Table 8. After a further 24 hours in culture, the neurons were fixed with 4% paraformaldehyde and stained with a neuronal marker (anti-class III β-Tubulin, Covance). Image acquisition was performed using the ImageXpress automated imaging system (Molecular Devices).

In another assay the test system is DRGs. Put plainly: anti-NGF antibody (NGF withdrawal) screen for inhibitors of neuron or axon degeneration. It counts as cell-based, mouse. The settings on record: inhibitor 100 μM or 10 μM added 1 hour before 25 μg/ml anti-NGF antibodies; 20 hours; actin staining. The protocol: The anti-NGF antibody model described above in Example 1 was used in a screen for inhibitors of neuron or axon degeneration. A library of more than 400 small molecules (Tocris Bioscience) was tested to see which, if any, modulate degeneration observed in the presence of anti-NGF antibodies.
Mouse E13.5 embryos were dissected and placed into L15 medium (Invitrogen). The spinal cord was dissected out from the embryos with DRGs attached. The spinal cords with DRGs attached were placed into L15 medium+5% goat serum (Gibco) on ice. The DRGs were removed using a tungsten needle and the remaining spinal cord was disposed of. Eight well slides were filled with N3-F12 solution (23 ml Ham's F12, 1 ml N3 supplement, and 1 ml 1 M glucose) to which was added 25 ng/ml NGF (Roche). (N3 supplement was made by dilution of N3 100× concentrate, which was made by mixing the following ingredients, in the following order: 5.0 ml Hank's buffered saline solution (HBSS; Ca, Mg free; Invitrogen), 1.0 ml bovine serum albumin (10 mg/ml in HBSS=150 μm), 2.0 ml Transferrin (T1147-1G, human, 100 mg/ml in HBSS=1.1 mM), 1.0 ml sodium selenite (S9133-1MG, 0.01 mg/ml in HBSS=58 μM), 0.4 ml putrescine dihydrochloride (P5780-5G, 80 mg/ml in HBSS=500 mM), 0.2 ml progesterone (P8783-5G, 0.125 mg/ml in absolute ethanol=400 μM), 0.02 ml corticosterone (C2505-500MG, 2 mg/ml in absolute ethanol=5.8 mM), 0.1 ml triiodothyonine, sodium salt (T6397-100MG, 0.2 mg/ml in 0.01 N NaOH=300 μM), 0.4 ml insulin (16634-250MG, bovine pancreas, 241 U/mg, 25 mg/ml in 20 mM HCl=4.4 mM), for a total volume of 10.02 ml (can be stored at −20° C.). An N3 supplement stock was made by combining the following: 10 ml Pen/Strep (100×, Gibco), 10 ml glutamine (200 mM, Gibco), 10 ml MEM vitamins (100×, Gibco), 10 ml N3 concentrate (100×, see above), for a total volume of 40 ml. The mixture was filter sterilized using a 0.22 μm filter, and 1-2 ml aliquots were stored at −20° C.).
The DRGs were sectioned into halves, and placed in the center of each well of an 8-chamber slide (BD Biocoat PDL/Laminin coated glass, Becton Dickinson). The DRGs were permitted to attach to the slide at room temperature for 5-10 minutes, followed by an overnight incubation at 37° C. Inhibitors of choice were added at a concentration of 100 μM (top row) or 10 μM (bottom row) 1 hour before adding anti-NGF antibodies. The anti-NGF antibodies were added to the right half of the slide (4 wells) at a concentration of 25 μg/ml. After incubation for 20 hours at 37° C., the slides were fixed with 30% sucrose/8% paraformaldehyde (PFA) by adding 250 μl of the fix solution directly to the 250 μl of culture medium. (To make the 30% sucrose/8% PFA solution, the following ingredients were added to a 600 ml beaker including a stir bar: 250 ml 16% PFA (cat#15710-S, Electron Microscopy Sciences), 50 ml 10×PBS pH 7.4, and 150 g sucrose. The solution was mixed under low heat until dissolved, and then 6-8 drops of 1 M NaOH were added to bring the pH to 7.4. The volume was then brought to 500 ml with water in a graduated cylinder. The solution was mixed well, placed in aliquots, and frozen.) The slides were fixed for 30 minutes, followed by washing once with PBS. All cells were labeled with an actin stain (Alexa-568 conjugated phalloidin; 1:40; Invitrogen), a membrane dye (DiO; 1:200; Invitrogen), and a DNA stain (Hoechst 33258; 1:10,000; Invitrogen) in 0.1% Triton and 1% goat serum for 2 hours at room temperature. […]

A word on the pIC50: it is the IC50 on a negative log10 scale, so that one unit is a factor of ten. As for `O=C(O)c1ccc2c3c1cccc3c(=O)n1c3ccccc3nc21` [STO-609], the pIC50 in the assay on CaMKK is 5.52. In assay [1], the “protection of cerebellar granule neurons from serum deprivation/KCl reduction” value is recorded as “protect cerebellar granule neurons from serum deprivation/KCl reduction”. Further, the “Comments (observations on protection against neurodegeneration upon NGF withdrawal)” value in the assay on DRGs is listed as “Partial”.
